The values below are quoted from earlier work in patent US20070248696A1, “Composition and method for enhancing neuromuscular facilitation and cognitive functions” (priority 2006, published 2007).

For data set [1] the following is noted: relative to vitamin E.
For data set [2] the following is noted: relative to vitamin E. This is another data set of the same source.
For data set [3] the following is noted: in vivo.

Regarding `O=C(O[C@@H]1Cc2c(O)cc(O)cc2O[C@@H]1c1cc(O)c(O)c(O)c1)c1cc(O)c(O)c(O)c1` [EGCG, (−)-epigallocatechin-3-gallate], the “more powerful than vitamin E in neutralizing pro-oxidants and free radicals that attack lipids” value in data set [1] is reported as “over 200 times”. In data set [2], the “more potent than vitamin E in reducing oxidation” value is recorded as 20 times. In the case of `C[N+](C)(C)CCOP(=O)(O)OP(=O)([O-])OC[C@H]1O[C@@H](n2ccc(N)nc2=O)[C@H](O)[C@@H]1O` [CDP-choline, cytidine 5′-diphosphocholine], in data set [3], the “motor performance and coordination in the rotorod and open field tests” value was “improves motor performance and coordination”.
